Where a name gives a salt, the structure may show the parent alone.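 48-hour exposure; five concentrations; linearly interpolated endpoints. At the GI50, growth is halved.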 Active and inactive are the calls of the source. Cut-off read from the data, not from the text of the source: active = GI50 up to about 1.1 µM and inactive = higher.
Key:
Test in all cases: NCI anticancer screen, dose series, 48 h
PC-3 = test system: PC-3
T47D = test system: T47D
OVCAR-8 = test system: OVCAR-8
LOX IMVI = test system: LOX IMVI
DU-145 = test system: DU-145
HL-60 = test system: HL-60
SK-MEL-2 = test system: SK-MEL-2
Hs-578T = test system: Hs-578T
SF-268 = test system: SF-268
RXF 393 = test system: RXF 393
COLO 205 = test system: COLO 205
MOLT-4 = test system: MOLT-4
SR = test system: SR
TK-10 = test system: TK-10
SK-MEL-5 = test system: SK-MEL-5
HCC 2998 = test system: HCC 2998
U-251 = test system: U-251
HCT-15 = test system: HCT-15
NCI-H522 = test system: NCI-H522
SF-295 = test system: SF-295

Compound	GI50 (PC-3)	GI50 (T47D)	GI50 (OVCAR-8)	GI50 (LOX IMVI)	GI50 (DU-145)	GI50 (HL-60)	GI50 (SK-MEL-2)	GI50 (Hs-578T)	GI50 (SF-268)	GI50 (RXF 393)	GI50 (COLO 205)	GI50 (MOLT-4)	GI50 (SR)	GI50 (TK-10)	GI50 (SK-MEL-5)	GI50 (HCC 2998)	GI50 (U-251)	GI50 (HCT-15) [µM]	GI50 (NCI-H522)	GI50 (SF-295)
Cc1cc(N)ccc1C=O	> 100 µM (inactive)	> 100 µM (inactive)	> 100 µM (inactive)	> 100 µM (inactive)	> 100 µM (inactive)	> 100 µM (inactive)	> 100 µM (inactive)	> 100 µM (inactive)	> 100 µM (inactive)	> 100 µM (inactive)	> 100 µM (inactive)	> 100 µM (inactive)	> 100 µM (inactive)	> 100 µM (inactive)	> 100 µM (inactive)	> 100 µM (inactive)	> 100 µM (inactive)	> 100	> 100 µM (inactive)	
C=CCSS/C=C/C[S+]([O-])CC=C (configuration not stated) [AJOENE]	39.1 µM (inactive)	> 56.1 µM (inactive)	18.5 µM (inactive)	14.6 µM (inactive)	68.2 µM (inactive)	5.05 µM (inactive)	> 52.2 µM (inactive)	26.4 µM (inactive)	25 µM (inactive)	24.9 µM (inactive)	24.7 µM (inactive)	3.95 µM (inactive)	12.4 µM (inactive)	> 85.7 µM (inactive)	36.6 µM (inactive)	63.1 µM (inactive)	60 µM (inactive)	35.5	16.7 µM (inactive)	58.7 µM (inactive)
NCCCNCCCCNCCCN [SPERMINE TETRAHYDROCHLORIDE]	> 100 µM (inactive)	2.36 µM (inactive)	34.3 µM (inactive)	8.11 µM (inactive)	10.6 µM (inactive)	4.26 µM (inactive)	> 100 µM (inactive)	11.9 µM (inactive)	> 42.7 µM (inactive)	14.1 µM (inactive)	4.67 µM (inactive)	4.53 µM (inactive)	3.74 µM (inactive)	6.62 µM (inactive)	> 57.9 µM (inactive)	> 48.5 µM (inactive)	> 42 µM (inactive)	2.67	0.374 µM (active)	> 100 µM (inactive)
O=C1/C(=C/c2ccc(O)cc2)Oc2ccccc21	> 100 µM (inactive)	> 100 µM (inactive)	> 100 µM (inactive)	> 100 µM (inactive)	> 100 µM (inactive)	35.6 µM (inactive)	> 100 µM (inactive)	> 100 µM (inactive)	> 100 µM (inactive)	> 100 µM (inactive)	> 100 µM (inactive)	44.9 µM (inactive)	47.6 µM (inactive)	> 100 µM (inactive)	> 100 µM (inactive)	> 100 µM (inactive)	> 100 µM (inactive)	> 100	23.8 µM (inactive)	> 100 µM (inactive)
CN(C)CCNc1ccc2c(=O)n(CCN(C)C)c(=O)n3c4ccc(N)cc4c(=O)c1c23	0.0608 µM (active)	0.207 µM (active)	< 0.01 µM (active)	0.0775 µM (active)	0.0665 µM (active)	0.0434 µM (active)	0.117 µM (active)	0.178 µM (active)	< 0.0272 µM (active)	0.0769 µM (active)	0.0675 µM (active)	< 0.01 µM (active)	< 0.0194 µM (active)	0.318 µM (active)	0.194 µM (active)	0.0392 µM (active)	0.0264 µM (active)	0.0211	< 0.01 µM (active)	0.0671 µM (active)
C=C1CCOC2(C(O)C(C)(O)CO)NC(=O)C1(O)NC2=O (configuration not stated)	> 100 µM (inactive)	> 100 µM (inactive)	> 100 µM (inactive)	> 100 µM (inactive)	> 100 µM (inactive)	> 100 µM (inactive)	> 100 µM (inactive)	> 100 µM (inactive)	> 100 µM (inactive)	> 100 µM (inactive)	> 100 µM (inactive)	> 100 µM (inactive)	> 100 µM (inactive)	> 100 µM (inactive)	> 100 µM (inactive)	> 100 µM (inactive)	> 100 µM (inactive)	> 100	> 100 µM (inactive)	> 100 µM (inactive)
Cn1c(=O)[nH]c2sc3c(c2c1=N)CCCC3	> 75 µM (inactive)	> 75 µM (inactive)	> 75 µM (inactive)	> 75 µM (inactive)	> 75 µM (inactive)	32.7 µM (inactive)	0.199 µM (active)	> 75 µM (inactive)	> 75 µM (inactive)	> 75 µM (inactive)	> 75 µM (inactive)	> 75 µM (inactive)	> 75 µM (inactive)	> 75 µM (inactive)	> 75 µM (inactive)	58.9 µM (inactive)	> 75 µM (inactive)	> 75	> 75 µM (inactive)	> 75 µM (inactive)
COc1ccc(/C=C2\CN(C)CC3C2=NC(=S)NC3c2ccc(OC)cc2)cc1 (configuration not stated)	6.21 µM (inactive)	4.11 µM (inactive)	7.8 µM (inactive)	4.76 µM (inactive)	4.68 µM (inactive)	2.19 µM (inactive)	13.9 µM (inactive)	52.7 µM (inactive)	5.64 µM (inactive)	2.17 µM (inactive)	3.67 µM (inactive)	2.9 µM (inactive)	0.865 µM (active)	27.2 µM (inactive)	4.24 µM (inactive)	6.75 µM (inactive)	8.55 µM (inactive)	3.46	1.63 µM (inactive)	3.69 µM (inactive)
O=C1NC(=O)C(Cc2ccccc2)(c2cccnc2)N1 (configuration not stated)	> 100 µM (inactive)	> 100 µM (inactive)	> 100 µM (inactive)	> 100 µM (inactive)	> 100 µM (inactive)	> 100 µM (inactive)	> 100 µM (inactive)	> 100 µM (inactive)	> 100 µM (inactive)	> 100 µM (inactive)	> 100 µM (inactive)	> 100 µM (inactive)	> 100 µM (inactive)	> 100 µM (inactive)	> 100 µM (inactive)	> 100 µM (inactive)	> 100 µM (inactive)	> 100	> 100 µM (inactive)	> 100 µM (inactive)
CSc1c(C(=O)Nc2ccccc2)c(N)n(N)c(=O)c1C#N	> 100 µM (inactive)	> 100 µM (inactive)	> 100 µM (inactive)	> 100 µM (inactive)	> 100 µM (inactive)	> 100 µM (inactive)	> 100 µM (inactive)	> 100 µM (inactive)	> 100 µM (inactive)	> 100 µM (inactive)	> 100 µM (inactive)	> 100 µM (inactive)	> 100 µM (inactive)	> 100 µM (inactive)	> 100 µM (inactive)	> 100 µM (inactive)	> 100 µM (inactive)	> 100	64 µM (inactive)	
CC1=C(CO)C2=C(C)C3(CC3)[C@@](C)(O)C(=O)C2=C1 [IROFULVEN]	0.267 µM (active)	0.218 µM (active)	0.219 µM (active)	0.582 µM (active)	0.0929 µM (active)	0.237 µM (active)	0.196 µM (active)	0.29 µM (active)	0.234 µM (active)	0.0507 µM (active)	0.166 µM (active)	0.785 µM (active)	0.792 µM (active)	0.279 µM (active)	0.161 µM (active)	0.153 µM (active)	0.286 µM (active)	0.29	0.146 µM (active)	0.302 µM (active)
CC[C@]12C=CCN3CC[C@@]4(c5cc(N=O)c(OC)cc5N(C)[C@H]4[C@@](O)(C(=O)NC(Cc4c[nH]c5ccccc45)C(=O)OC)[C@@H]1O)[C@@H]32 (some centres not stated)	11.5 µM (inactive)	6.93 µM (inactive)	17.5 µM (inactive)	16.7 µM (inactive)	17.2 µM (inactive)	2.87 µM (inactive)	15.3 µM (inactive)	22.4 µM (inactive)	24.2 µM (inactive)	12.6 µM (inactive)	15.4 µM (inactive)	1.46 µM (inactive)	1.22 µM (inactive)	17.9 µM (inactive)	14.8 µM (inactive)	15.6 µM (inactive)	7.33 µM (inactive)	20.3	2.64 µM (inactive)	17.1 µM (inactive)
c1csc(-c2nnc(C34CC5CC(CC(C5)C3)C4)o2)c1	28 µM (inactive)	26.9 µM (inactive)	37.6 µM (inactive)	23.6 µM (inactive)	44.2 µM (inactive)	15.1 µM (inactive)	24.5 µM (inactive)	31.6 µM (inactive)	46.5 µM (inactive)	23.3 µM (inactive)	17.5 µM (inactive)	24.7 µM (inactive)	27.7 µM (inactive)	47.4 µM (inactive)	17.1 µM (inactive)	35.4 µM (inactive)	39.6 µM (inactive)	38.1	36.8 µM (inactive)	42.1 µM (inactive)
O=C1/C(=C/c2ccccc2[N+](=O)[O-])N=C(c2ccccc2)N1c1nc2ccccc2s1	31 µM (inactive)	21.7 µM (inactive)	17.4 µM (inactive)	22 µM (inactive)	20.9 µM (inactive)	26.1 µM (inactive)	33.2 µM (inactive)	19.1 µM (inactive)	20.5 µM (inactive)	16.9 µM (inactive)		5.92 µM (inactive)	12.9 µM (inactive)	49.2 µM (inactive)	25.2 µM (inactive)	17.8 µM (inactive)	29.4 µM (inactive)	17.5	18.6 µM (inactive)	40.2 µM (inactive)

From ChEMBL document CHEMBL1201862, “PubChem BioAssay data set” (2004)
